Measurements taken from PMC9033836, “Determination of key residues in MRGPRX2 to enhance pseudo-allergic reactions induced by fluoroquinolones” (Scientific Reports, 2022).
Residue numbers refer to the chain shown, from its start.

Legend:
Assay in all cases: intracellular calcium mobilisation (FLIPR Tetra), transiently transfected HEK293
Format in all cases: cell-based
dog MRGPRX2 [1] = target: T1, dog MRGPRX2 (Canis lupus, UniProt A0A4Y5P885); conditions: read-out: EC50 (μg/mL) ± SD (P value) / Dog / Wild type (converted)
T1 construct: gene in pcDNA3.1(+), transiently transfected HEK293 cells (JCRB)
T1 sequence (A0A4Y5P885 1-417): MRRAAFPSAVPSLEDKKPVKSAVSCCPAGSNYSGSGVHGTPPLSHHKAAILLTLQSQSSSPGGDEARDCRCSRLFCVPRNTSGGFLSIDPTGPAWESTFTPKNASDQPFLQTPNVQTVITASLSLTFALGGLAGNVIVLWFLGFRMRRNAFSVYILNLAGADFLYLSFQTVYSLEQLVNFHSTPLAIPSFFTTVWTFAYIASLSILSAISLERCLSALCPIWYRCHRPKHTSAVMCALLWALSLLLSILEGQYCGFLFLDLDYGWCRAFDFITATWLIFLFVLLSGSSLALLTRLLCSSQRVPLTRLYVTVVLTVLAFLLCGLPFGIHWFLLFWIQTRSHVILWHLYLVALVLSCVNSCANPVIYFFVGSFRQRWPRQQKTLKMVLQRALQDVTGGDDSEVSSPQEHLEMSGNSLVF
Excerpt: intracellular calcium mobilisation (FLIPR Tetra), transiently transfected HEK293 on dog MRGPRX2

human MRGPRX2 [2] = target: T2, human MRGPRX2 (Homo sapiens, UniProt Q96LB1, F78Y); conditions: read-out: EC50 (μg/mL) ± SD (P value) / Human / F78Y (converted)
T2 construct: full-length gene in pcDNA3.1(+), transiently transfected HEK293 cells (JCRB)
T2 sequence (Q96LB1 1-330 F78Y): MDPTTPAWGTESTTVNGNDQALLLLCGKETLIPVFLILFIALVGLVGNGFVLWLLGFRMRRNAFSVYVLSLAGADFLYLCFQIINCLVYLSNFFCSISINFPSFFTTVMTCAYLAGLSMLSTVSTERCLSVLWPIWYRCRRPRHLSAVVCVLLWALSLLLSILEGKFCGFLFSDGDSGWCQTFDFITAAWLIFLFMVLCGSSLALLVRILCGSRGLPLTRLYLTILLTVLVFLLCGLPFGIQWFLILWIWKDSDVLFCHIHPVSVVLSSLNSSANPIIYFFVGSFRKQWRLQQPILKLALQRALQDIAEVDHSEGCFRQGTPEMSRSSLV
Excerpt: (§1) intracellular calcium mobilisation (FLIPR Tetra), transiently transfected HEK293 on human MRGPRX2

human MRGPRX2 [3] = target: T3, human MRGPRX2 (Homo sapiens, UniProt Q96LB1); conditions: read-out: EC50 (μg/mL) ± SD (P value) / Human / Wild type (converted)
T3 construct: full-length gene in pcDNA3.1(+), transiently transfected HEK293 cells (JCRB)
T3 sequence (Q96LB1 1-330): T2 sequence (Q96LB1 1-330 F78Y) with Y78F
Excerpt: as §1

human MRGPRX2 [4] = target: T4, human MRGPRX2 (Homo sapiens, UniProt Q96LB1, M109W); conditions: read-out: EC50 (μg/mL) ± SD (P value) / Human / M109W (converted)
T4 construct: full-length gene in pcDNA3.1(+), transiently transfected HEK293 cells (JCRB)
T4 sequence (Q96LB1 1-330 M109W): T2 sequence (Q96LB1 1-330 F78Y) with Y78F, M109W
Excerpt: as §1

human MRGPRX2 [5] = target: T5, human MRGPRX2 (Homo sapiens, UniProt Q96LB1, F78Y/M109W); conditions: read-out: EC50 (μg/mL) ± SD (P value) / Human / F78Y/M109W (converted)
T5 construct: full-length gene in pcDNA3.1(+), transiently transfected HEK293 cells (JCRB)
T5 sequence (Q96LB1 1-330 F78Y/M109W): T2 sequence (Q96LB1 1-330 F78Y) with M109W
Excerpt: as §1

dog MRGPRX2 [6] = target: T1, dog MRGPRX2; conditions: highest concentration of fluoroquinolones 1000 µg/mL; HBSS pH 7.4, 20 mM HEPES, 0.05% BSA
human MRGPRX2 [7] = target: T3, human MRGPRX2; conditions: highest concentration of fluoroquinolones 1000 µg/mL; HBSS pH 7.4, 20 mM HEPES, 0.05% BSA

Row | SMILES | EC50 (dog MRGPRX2 [1]) | EC50 (human MRGPRX2 [2]) | EC50 (human MRGPRX2 [3]) | EC50 (human MRGPRX2 [4]) | EC50 (human MRGPRX2 [5]) | intracellular calcium mobilisation (FLIPR Tetra), transiently transfected HEK293 (dog MRGPRX2 [6]) | intracellular calcium mobilisation (FLIPR Tetra), transiently transfected HEK293 (human MRGPRX2 [7])
1 | O=C(O)c1cn(C2CC2)c2cc(N3CCNCC3)c(F)cc2c1=O [CPFX] | 36.2 µM |  |  |  |  |  | 
2 | COc1c(N2CCNC(C)C2)c(F)cc2c(=O)c(C(=O)O)cn(C3CC3)c12 (stereo not shown) [GFLX] | 258 µM | 666 µM | 959 µM | 266 µM | 197 µM |  | 
3 | C[C@H]1COc2c(N3CCN(C)CC3)c(F)cc3c(=O)c(C(=O)O)cn1c23 [LVFX] | 249 µM | 1380 µM | 1800 µM | 581 µM | 498 µM |  | 
4 | C[C@H]1COc2c(C3(N)CC3)c(F)cc3c(=O)c(C(=O)O)cn1c23 [PZFX] |  |  |  |  |  | PZFX ... did not induce intracellular calcium mobilisation in any of the cells | PZFX ... did not induce intracellular calcium mobilisation in any of the cells
